Test results as given in patent US20250381179A1, “CHROMAN-BASED COMPOUNDS FOR TREATING CANCER” (priority 2024, published 2025).

Columns and labels:
[1] = tested on: MCF7 xenograft tumors; assay: MCF7 xenograft tumors in mice, once daily oral administration; type: in vivo; conditions: once daily oral 30 mg/kg/day (lowest dose level evaluated)
[2] = rat, in vivo, po
[3] = target: CYP2D6 (Homo sapiens, UniProt P10635); assay: CYP2D6 direct inhibition; type: in vitro ADME; conditions: highest concentration evaluated (10 μM)
[4] = target: CYP2C19 (Homo sapiens, UniProt P33261)
[5] = tested on: CYP1A2; assay: CYP1A2 induction in hepatocytes (activity, mRNA); type: in vitro ADME; conditions: for CYP1A2 mRNA expression increase: 1 of 3 hepatocyte donors
[6] = target: CYP2C9 (Homo sapiens, UniProt P11712)
[7] = Exposure after repeat oral administration in GLP toxicology study, dogs; type: in vivo
Excerpt: There were no marked sex-based differences in exposure, but in the 28-day toxicity study of compound (1-g) in rats, exposures were 1.4 to 1.9-fold higher in female rats compared to males.

[8] = target: human cytochrome P450 CYP3A5 (Homo sapiens, UniProt P20815); assay: In vitro metabolism by CYP3A5; type: in vitro ADME
[9] = in vivo; conditions: female, rat, po
[10] = target: T1, ERa (Homo sapiens, UniProt P03372); assay: ERa degradation in ERa-positive breast cancer cell lines; type: cell-based; conditions: multiple ERa-positive breast cancer cell lines, such as MCF7
T1 sequence (P03372 1-595): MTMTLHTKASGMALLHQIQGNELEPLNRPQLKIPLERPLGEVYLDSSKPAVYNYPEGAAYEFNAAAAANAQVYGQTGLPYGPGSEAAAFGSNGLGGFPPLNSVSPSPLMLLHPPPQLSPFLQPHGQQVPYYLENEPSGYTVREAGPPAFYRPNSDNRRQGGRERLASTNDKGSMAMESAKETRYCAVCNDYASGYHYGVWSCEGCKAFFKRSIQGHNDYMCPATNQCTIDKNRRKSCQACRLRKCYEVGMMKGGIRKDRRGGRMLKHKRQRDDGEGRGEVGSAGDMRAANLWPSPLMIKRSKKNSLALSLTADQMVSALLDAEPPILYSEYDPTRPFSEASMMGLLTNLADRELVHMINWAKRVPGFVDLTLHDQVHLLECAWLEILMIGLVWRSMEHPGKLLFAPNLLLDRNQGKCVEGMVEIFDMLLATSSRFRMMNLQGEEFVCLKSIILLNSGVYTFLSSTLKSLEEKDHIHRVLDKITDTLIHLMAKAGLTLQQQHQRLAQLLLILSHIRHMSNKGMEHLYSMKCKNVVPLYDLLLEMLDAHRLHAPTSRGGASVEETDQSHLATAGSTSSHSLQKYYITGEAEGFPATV

Sequence of CYP2D6 (P10635 whole entry): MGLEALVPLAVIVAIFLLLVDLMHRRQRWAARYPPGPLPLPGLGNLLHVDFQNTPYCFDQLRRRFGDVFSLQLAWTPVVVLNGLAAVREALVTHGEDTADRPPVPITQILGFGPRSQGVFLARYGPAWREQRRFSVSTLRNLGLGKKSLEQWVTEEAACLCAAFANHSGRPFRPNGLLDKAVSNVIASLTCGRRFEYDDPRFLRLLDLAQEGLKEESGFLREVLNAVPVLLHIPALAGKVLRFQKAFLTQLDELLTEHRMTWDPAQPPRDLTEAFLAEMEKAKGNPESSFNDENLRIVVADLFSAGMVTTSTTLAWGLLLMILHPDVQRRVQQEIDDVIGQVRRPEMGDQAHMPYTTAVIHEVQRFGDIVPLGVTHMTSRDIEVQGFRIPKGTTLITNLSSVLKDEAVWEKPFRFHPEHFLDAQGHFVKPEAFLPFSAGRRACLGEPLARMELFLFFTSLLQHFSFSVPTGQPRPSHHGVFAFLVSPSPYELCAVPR
Sequence of CYP2C9 (P11712 whole entry): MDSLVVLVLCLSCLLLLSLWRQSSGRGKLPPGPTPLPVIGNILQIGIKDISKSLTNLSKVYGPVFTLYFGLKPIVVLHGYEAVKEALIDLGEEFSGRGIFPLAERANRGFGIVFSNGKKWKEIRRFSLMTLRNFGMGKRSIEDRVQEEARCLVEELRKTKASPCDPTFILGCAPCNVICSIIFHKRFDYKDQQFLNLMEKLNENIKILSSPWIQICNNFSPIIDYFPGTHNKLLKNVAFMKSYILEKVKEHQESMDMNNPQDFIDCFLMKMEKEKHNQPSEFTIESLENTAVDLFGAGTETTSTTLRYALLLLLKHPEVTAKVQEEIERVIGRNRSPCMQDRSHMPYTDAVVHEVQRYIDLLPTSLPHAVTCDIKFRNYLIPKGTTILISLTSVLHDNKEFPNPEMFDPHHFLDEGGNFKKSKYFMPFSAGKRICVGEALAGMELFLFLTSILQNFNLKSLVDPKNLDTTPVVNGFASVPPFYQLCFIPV
Sequence of CYP2C19 (P33261 whole entry): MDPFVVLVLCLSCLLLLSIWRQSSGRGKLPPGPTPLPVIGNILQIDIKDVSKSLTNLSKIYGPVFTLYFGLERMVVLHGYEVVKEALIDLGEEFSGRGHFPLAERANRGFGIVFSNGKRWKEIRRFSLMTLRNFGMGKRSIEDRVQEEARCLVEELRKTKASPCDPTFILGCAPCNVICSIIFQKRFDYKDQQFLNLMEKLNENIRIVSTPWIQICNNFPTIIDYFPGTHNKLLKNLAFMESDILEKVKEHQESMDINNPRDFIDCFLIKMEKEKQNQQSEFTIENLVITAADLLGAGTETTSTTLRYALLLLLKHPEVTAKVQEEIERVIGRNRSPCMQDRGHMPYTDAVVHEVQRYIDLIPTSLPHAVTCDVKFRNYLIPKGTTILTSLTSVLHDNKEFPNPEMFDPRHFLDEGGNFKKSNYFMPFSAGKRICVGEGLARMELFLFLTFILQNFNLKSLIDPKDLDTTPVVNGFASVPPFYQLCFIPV
Sequence of human cytochrome P450 CYP3A5 (P20815 whole entry): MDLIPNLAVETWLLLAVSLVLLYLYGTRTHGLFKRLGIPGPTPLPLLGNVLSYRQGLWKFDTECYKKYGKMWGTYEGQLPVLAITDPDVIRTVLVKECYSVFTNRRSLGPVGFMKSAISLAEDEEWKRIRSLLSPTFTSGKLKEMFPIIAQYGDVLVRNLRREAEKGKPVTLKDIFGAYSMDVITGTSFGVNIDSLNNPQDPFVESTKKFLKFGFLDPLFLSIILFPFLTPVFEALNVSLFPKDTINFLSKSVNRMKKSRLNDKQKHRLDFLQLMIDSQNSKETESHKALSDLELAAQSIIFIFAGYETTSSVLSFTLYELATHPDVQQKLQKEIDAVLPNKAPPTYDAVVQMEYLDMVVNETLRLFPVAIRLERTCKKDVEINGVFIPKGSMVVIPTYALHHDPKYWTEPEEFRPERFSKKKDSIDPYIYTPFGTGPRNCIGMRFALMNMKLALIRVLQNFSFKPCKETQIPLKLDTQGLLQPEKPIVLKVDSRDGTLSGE

With `O=C1CC[C@H](N2Cc3cc(N4CCN(CC5CCN(c6ccc([C@@H]7c8ccc(O)cc8OC[C@@H]7c7ccccc7)cc6F)CC5)CC4)ccc3C2=O)C(=O)N1` [compound (1-g), (S)-3-(5-(4-((1-(2-fluoro-4-((3S,4R)-7-hydroxy-3-phenylchroman-4-yl)phenyl)piperidin-4-yl)methyl)piperazin-1-yl)-1-oxoisoindolin-2-yl)piperidine-2,6-dione] the “effect on MCF7 xenograft tumors” value [1] was “achieved tumor regression”, the “presence in mammary gland tissue, ovaries and uterus” value [2] was “quantifiable in mammary gland tissue” and the tissue exposure [2] was “highest exposures were observed in the large and small intestine with limited exposure to the brain”. For the same compound, the CYP2D6 direct inhibition [3] was “did not directly inhibit”, the CYP2C19 time-dependent inhibition [4] was “without showing time-dependent inhibition” and the “CYP1A2 mRNA expression increase” value ([5]; 0.5 μM (372 ng/mL)) was 1.4 fold. For the same compound, the “CYP1A2 mRNA expression increase” value ([5]; 2 μM) was 3.1 fold, the “CYP1A2 enzyme activity induction” value ([5]; hepatocytes) was “no induction of CYP1A2 enzyme activity was observed” and the “highest non-severely-toxic dose (HNSTD)” value (both, dog, in vivo, po, 28 day) was 45 mg/kg/day. The off-target adverse toxicities (dog, in vivo) was “no off-target adverse toxicities observed”, the key organ effects (dogs, 28-day GLP) was “considered on target pharmacological effects” and the CYP2C9 time-dependent inhibition [6] was “without showing time-dependent inhibition”. The “accumulation with repeated dosing” value [7] was “No significant accumulation”, the “change of exposure following repeat dosing” value ([7]; 45 mg/kg/day) was “decreased in females and slightly decreased in males” and the “dose proportionality of exposure” value ([7]; 5 to 45 mg/kg/day, repeat administration) was “slightly less than dose proportional”. For the same compound, the “exposure (AUC0-24h) versus dose” value ([7]; repeat oral administration) was “increased in an approximately dose-dependent manner”, the “metabolism by CYP3A5” value [8] was “weakly metabolized” and the AUC ([9]; AUC in the evaluated tissues (compared with plasma)) was greater than 2800 ng·h/mL. The AUC ([9]; plasma AUC) was 2800 ng·h/mL and the ERa degradation [10] was “induces rapid ERa degradation”.
